Reference: patent US6159932A, “Endoparasiticidal compositions” (Bayer Aktiengesellschaft, priority 1995, dated 2000)

Experiments:
[1] = test system: hookworm Uncinaria stenocephala; conditions: 500 μg/kg, dogs; cited from earlier work
Heterakis spumosa = assay: In vivo nematode test, Heterakis spumosa in the mouse; conditions: oral
Method: Heterakis spumosa in the Mouse
Mice are infected experimentally with nematodes of the species Heterakis spumosa. For infection, the mice are administered orally with Heterakis spumosa as 90 embryonate eggs.
After the prepatency period has expired, the suspended active substances are administered orally on day 46 after infection.
(§1) Determination of the Activity
The mice are selected on day 54 after infection. The adult parasites are counted in the colon and caecum using a microscope. The success of treatment in the dose group is made relative to the untreated control group.

Nematospiroides dubius = assay: In vivo nematode test, Nematospiroides dubius in the mouse; conditions: oral
Method: Nematospiroides dubius in the Mouse
Mice are infected experimentally with nematodes of the species Nematospiroides dubius. For infection, the mice are administered orally with Nematospiroides dubius as 60 filariform larvae.
After the prepatency period has expired, the suspended active substances are administered orally on day 12 after infection.
as §1
The mice are selected on day 20 after infection. The adult parasites in the Duodenum are counted by means of a compressor. The success of treatment in the dose group is made relative to the untreated control group.

hookworm and whipworm = conditions: human medicine, high dosage on several days in succession; cited from earlier work
Ancylostoma caninum = assay: In-vivo nematode test, Ancylostoma caninum in dogs; conditions: oral
Method: Ancylostoma caninum in dogs
Beagle puppies were experimentally infested with hookworms (Ancylostoma caninum). Amount of infestation material were 250 L3 larvae.
After the prepatent period, when mature worms are present within the gastrointestinal tract, the dogs were orally treated with the test compounds as pure active in gelatine capsules.
Determination of the Efficacy was Carried Out According to the Following Two Methods
1. Counts of worm eggs within the dogs faces before and after treatment.
2. Percent efficacy at a critical test calculated using the formula: [formula]

[2] = ivermectin B1a/B1b 0.1 mg/kg alone

Milbemycin
action against the hookworm Uncinaria stenocephala [1]: distinct weakness in its action

22,23-dihydroavermectins B1a /B1b [Ivermectin B1a /B1b]
Reduction rate (Heterakis spumosa; [2]): < 50% | Reduction rate (Nematospiroides dubius; [2]): 0% | efficacy in hookworm and whipworm infected patients (hookworm and whipworm): ineffective | Reduction rate (Ancylostoma caninum; ivermectin B1a/B1b 0,01 mg/kg alone): 100% | Reduction rate (Ancylostoma caninum; ivermectin B1a/B1b 0,001 mg/kg alone): 0%

CC(C)C[C@H]1C(=O)O[C@H](Cc2ccccc2)C(=O)N(C)[C@@H](CC(C)C)C(=O)O[C@H](C)C(=O)N(C)[C@@H](CC(C)C)C(=O)O[C@H](Cc2ccccc2)C(=O)N(C)[C@@H](CC(C)C)C(=O)O[C@H](C)C(=O)N1C [PF 1022 A]
Reduction rate (Heterakis spumosa; PF 1022 A 5.0 mg/kg alone): 0% | Reduction rate (Heterakis spumosa; PF 1022 A 10.0 mg/kg alone): 0% | Reduction rate (Heterakis spumosa; PF 1022 A 25.0 mg/kg alone): 0% | Reduction rate (Heterakis spumosa; PF 1022 A 50.0 mg/kg alone): 0% | Reduction rate (Nematospiroides dubius; PF 1022 A 25.0 mg/kg alone): 0% | Reduction rate (Nematospiroides dubius; PF 1022 A 50.0 mg/kg alone): 0% | Reduction rate (Ancylostoma caninum; PF 1022 A 0,5 mg/kg alone): 0% | Reduction rate (Ancylostoma caninum; PF 1022 A 1,0 mg/kg alone): 100%
